Measured values: ChEMBL document CHEMBL1201862, “PubChem BioAssay data set” (2004)
Activity calls are given as the source filed them.

Key:
[1] = target: G-protein coupled receptor 35 (Homo sapiens, UniProt Q9HC97); assay: GPR35 antagonists blocking zaprinast-driven arrestin recruitment, primary screen, imaging, U2OS, beta-arrestin-GFP, zaprinast agonist (AID 2058); type: functional;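 also: antagonist potency meaning inhibition of agonist-induced arrestin redistribution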
[2] = target: T1, Estrogen receptor (Homo sapiens, UniProt P03372);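 also: potency for inhibiting coactivator peptide recruitment to the receptor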
T1 sequence (P03372 whole entry): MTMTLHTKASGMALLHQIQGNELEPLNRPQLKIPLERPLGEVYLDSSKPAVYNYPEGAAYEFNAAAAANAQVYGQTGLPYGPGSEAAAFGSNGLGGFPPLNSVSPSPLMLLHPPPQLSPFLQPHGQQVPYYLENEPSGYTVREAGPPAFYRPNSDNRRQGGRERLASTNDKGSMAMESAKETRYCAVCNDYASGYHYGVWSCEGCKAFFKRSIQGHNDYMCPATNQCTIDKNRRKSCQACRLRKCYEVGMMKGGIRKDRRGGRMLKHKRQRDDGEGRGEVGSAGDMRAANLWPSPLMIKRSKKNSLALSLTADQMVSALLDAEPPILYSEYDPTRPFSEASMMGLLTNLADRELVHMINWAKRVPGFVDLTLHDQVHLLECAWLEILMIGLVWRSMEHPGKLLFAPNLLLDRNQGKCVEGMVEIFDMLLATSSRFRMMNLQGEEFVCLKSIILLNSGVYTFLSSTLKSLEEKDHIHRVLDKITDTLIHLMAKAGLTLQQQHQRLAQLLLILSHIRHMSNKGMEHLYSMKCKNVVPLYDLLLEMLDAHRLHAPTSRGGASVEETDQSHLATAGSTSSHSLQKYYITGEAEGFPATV

[3] = target: T2, Estrogen receptor beta (Homo sapiens, UniProt Q92731);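 also: recombinant ER-beta bound to coactivator SRC1 peptide in presence of estradiol agonist; inhibitors block coactivator peptide binding and lower the FRET signal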
[4] = target: T2, Estrogen receptor beta; assay: ERβ–SRC-3 coactivator interaction inhibitors, confirmation, orthogonal assay, biochemical, ELISA, streptavidin-HRP readout (AID 1060)
[5] = target: T3, Alkaline phosphatase, tissue-nonspecific isozyme (Homo sapiens, UniProt P05186)
T3 sequence (P05186 whole entry): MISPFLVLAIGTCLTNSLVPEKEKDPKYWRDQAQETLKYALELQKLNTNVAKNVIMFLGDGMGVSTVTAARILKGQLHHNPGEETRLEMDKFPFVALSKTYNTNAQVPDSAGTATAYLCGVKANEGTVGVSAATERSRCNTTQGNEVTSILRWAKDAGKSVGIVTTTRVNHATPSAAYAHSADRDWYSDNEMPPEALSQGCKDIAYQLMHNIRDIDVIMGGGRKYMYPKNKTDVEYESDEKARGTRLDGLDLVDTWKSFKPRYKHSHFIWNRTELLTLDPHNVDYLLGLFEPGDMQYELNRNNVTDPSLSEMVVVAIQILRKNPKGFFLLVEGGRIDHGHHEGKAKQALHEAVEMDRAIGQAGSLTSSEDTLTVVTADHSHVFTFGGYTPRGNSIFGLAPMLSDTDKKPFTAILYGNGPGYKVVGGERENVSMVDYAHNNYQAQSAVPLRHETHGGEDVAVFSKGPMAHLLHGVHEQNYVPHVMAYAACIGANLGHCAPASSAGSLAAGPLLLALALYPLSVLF

[6] = test system: H9c2; assay: cells; type: functional, cell-based; conditions: Rattus norvegicus, H9c2, Myocardium;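 also: confirmatory concentration-response retest of ultra-high-throughput screening hits for modulation of myocardial damage; cell death induced by hydrogen peroxide oxidative stress; compound pretreatment for 60 min then peroxide exposure for 2 h; potency is for protecting the cells against peroxide damage rather than for killing them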
[7] = test system: INS1; assay: beta cell apoptosis inhibitors, cytokine rescue, dose response, luminescence, retest (AID 449756); type: functional, cell-based; conditions: Rattus norvegicus;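 also: cell death triggered by IL-1 beta plus TNF-alpha plus IFN-gamma mixture; protective hits raise ATP signal compared with cytokine alone wells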
[8] = target: Cytochrome P450 2C9 (Homo sapiens, UniProt P11712)
[9] = test system: H4; assay: Luminescence Cell-Based Dose Response HTS to Identify Activators of 5'UTR Stem-Loop Driven Prion Protein mRNA Translation in H4 Neuroglioblastoma Cells. [Related pubchem assays: 1829 (Project Summary), 1814 (Primary HTS)]; type: functional; conditions: Homo sapiens
[10] = target: T4, Tyrosine-protein phosphatase non-receptor type 7 (Homo sapiens, UniProt P35236); assay: SAR analysis of chemical inhibitors of HePTP using a Fluorescent assay - Set 2. [Related pubchem assays (depositor defined):AID1059, AID1077, AID1661, AID2085, AID521]; type: functional
T4 sequence (P35236 whole entry): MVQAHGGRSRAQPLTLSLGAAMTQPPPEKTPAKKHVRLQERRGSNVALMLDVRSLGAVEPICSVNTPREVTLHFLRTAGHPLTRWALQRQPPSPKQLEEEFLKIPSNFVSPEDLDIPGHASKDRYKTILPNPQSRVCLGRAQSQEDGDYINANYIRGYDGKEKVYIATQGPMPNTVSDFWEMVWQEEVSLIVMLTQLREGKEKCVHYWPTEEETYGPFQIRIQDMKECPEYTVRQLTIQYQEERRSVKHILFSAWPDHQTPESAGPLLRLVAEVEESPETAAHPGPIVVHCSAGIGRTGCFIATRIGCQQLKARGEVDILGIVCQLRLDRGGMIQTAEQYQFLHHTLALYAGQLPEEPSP

[11] = human group III sPLA2 inhibitors, dose response, biochemical, QFRET, IC50 (AID 743457);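 also: green fluorescence rise as the enzyme cleaves BODIPY PC-A2 in liposomes; potency for inhibition of the enzyme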
[12] = target: Alkaline phosphatase, placental type (Homo sapiens, UniProt P05187); assay: PLAP enzyme inhibitors, confirmation, biochemical, luminescence (AID 1512); type: functional
[13] = Luminescence Cell-Based Dose Response HTS to Identify Activators of Luciferase Translation or Activity in H4 […] Cells. [Related pubchem assays: 1829 (Project Summary), 1814 (Primary HTS)]; type: functional
[14] = Luminescence Cell-Based Dose Confirmation HTS to Identify Activators of 5'UTR Stem-Loop Driven Alpha-Synuclein mRNA Translation in H4 Neuroglioblastoma Cells. [Related pubchem assays: 1829 (Project Summary), 1814 (Primary HTS)]; type: functional
[15] = target: Dual specificity protein phosphatase 3 (Homo sapiens, UniProt P51452); assay: SAR VHR1 Fluorescent Assay for In Vitro dose response studies Set 2. [Related pubchem assays (depositor defined):AID1654, AID1661, AID1878]; type: functional
[16] = test system: HeLa; assay: Cytotoxicity counterscreen assay for transcriptional activators of heat shock protein 70 (Hsp70). [Related pubchem assays: 1203, 1252 ]; type: functional; conditions: Homo sapiens;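 also: cells exposed to compound for 16 hours before readout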
[17] = target: Acyl-homoserine lactone acylase PvdQ (Pseudomonas aeruginosa (strain LESB58), UniProt Q9I194); assay: P. aeruginosa PvdQ acylase inhibitors, dose response, biochemical, fluorescence, plate reader and imaging, cherry-picks (AID 493231)
[18] = HepG2 cell cytotoxicity, dose response, cytotoxicity control, plate reader, cherry-pick, antagonist series (AID 743416); type: functional, cell-based
[19] = A549 cell cytotoxicity, dose response, cytotoxicity control, plate reader, cherry-pick, antagonist series (AID 743412); type: functional, cell-based
[20] = inhibitors of SNCA 5'UTR-driven reporter translation, confirmation, H4 neuroglioma cells, luminescence (AID 1988); type: functional, cell-based
[21] = test system: HEK293; assay: inhibitors of LMP1-driven NF-kB reporter, dose response, cell-based, HEK293, luciferase, cherry-pick (AID 588343); type: functional; conditions: Homo sapiens
[22] = target: FAD-linked sulfhydryl oxidase ALR (Homo sapiens, UniProt P55789); assay: inhibitors of human ALR sulfhydryl oxidase, dose response, biochemical, H2O2 detection, luminescence, cherry-pick (AID 493248)
[23] = HEK293 cell cytotoxicity, dose response, cytotoxicity control, plate reader, cherry-picked samples (AID 743446); type: functional, cell-based
[24] = target: Lysosomal acid glucosylceramidase (Homo sapiens, UniProt P04062); assay: Dose response cell-based high throughput screening assay to identify enhancers of beta-glucosidase activity. [Related pubchem assays: 784 ]; type: functional
[25] = Luminescence Cell-Based Dose Response HTS to Identify Inhibitors of 5'UTR Stem-Loop Driven Prion Protein mRNA Translation in H4 Neuroglioblastoma Cells. [Related pubchem assays: 1827 (Project Summary), 1813 (Primary HTS)]; type: functional
[26] = LGR2 antagonists, dose response, cell-based, HEK293, CRE-luciferase reporter, cherry pick, set 2 (AID 743343); type: functional;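 also: transfected cells were stimulated with diluted bursicon conditioned medium after compound addition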
[27] = MC4R antagonists, dose response, counter-screen for LGR2 antagonist project, cell-based, plate reader, cherry pick (AID 743444); type: functional;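 also: transfected HEK 293 cells stimulated with alpha-MSH peptide; potency of inhibitors of the alpha-MSH evoked signal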
[28] = target: Nonstructural protein 1 (Influenza A virus, UniProt Q194T2); type: functional, Influenza A virus (A/California/07/2009(H1N1))
[29] = target: 5-hydroxytryptamine receptor 5A (Homo sapiens, UniProt P47898); assay: Counterscreen for agonists of OPRM1-OPRD1 heterodimerization: luminescence-based cell-based high throughput dose response assay to identify agonists of 5-hydroxytryptamine (serotonin) 5A receptor (HTR5A). [Related pubchem assays (depositor defined):AID504326, AID504355, AID504692, AID504904, AID504905]; type: functional
[30] = target: Delta-type opioid receptor (Homo sapiens, UniProt P41143); assay: Counterscreen for agonists of heterodimerization of the mu 1 (OPRM1) and delta 1 (OPRD1) opioid receptors: Luminescence-based cell-based high throughput dose response assay to identify agonists of OPRD1 homodimerization. [Related pubchem assays (depositor defined):AID504326, AID504355, AID504692, AID504904, AID504905]; type: functional
[31] = target: Bcl-2-like protein 10 (Homo sapiens, UniProt Q9HD36); assay: displacers of TR3 peptide from Bcl-B, primary screen, selectivity assay for Bfl-1 inhibitor project, biochemical, fluorescence polarization, FITC-TR3 peptide (AID 748);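 also: fluorescence polarization from a fluorescein-labelled TR3 peptide binding purified Bcl-B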
[32] = target: Mu-type opioid receptor (Homo sapiens, UniProt P35372); assay: Counterscreen for agonists of heterodimerization of the mu 1 (OPRM1) and delta 1 (OPRD1) opioid receptors: Luminescence-based cell-based high throughput dose response assay to identify agonists of OPRM1 homodimerization.; type: functional;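 also: U2OS cells expressing OPRM1 and beta-arrestin as split beta-galactosidase partners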
[33] = target: T5, Short transient receptor potential channel 4 (Mus musculus, UniProt Q9QUQ5); assay: mouse TRPC4 channel inhibitors, dose response, cell-based, HEK293 TRPC4/mu-opioid, Fluo-4 calcium (AID 434942); type: functional;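 also: potency of inhibitors blocking the TRPC4 calcium response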
T5 sequence (Q9QUQ5 whole entry): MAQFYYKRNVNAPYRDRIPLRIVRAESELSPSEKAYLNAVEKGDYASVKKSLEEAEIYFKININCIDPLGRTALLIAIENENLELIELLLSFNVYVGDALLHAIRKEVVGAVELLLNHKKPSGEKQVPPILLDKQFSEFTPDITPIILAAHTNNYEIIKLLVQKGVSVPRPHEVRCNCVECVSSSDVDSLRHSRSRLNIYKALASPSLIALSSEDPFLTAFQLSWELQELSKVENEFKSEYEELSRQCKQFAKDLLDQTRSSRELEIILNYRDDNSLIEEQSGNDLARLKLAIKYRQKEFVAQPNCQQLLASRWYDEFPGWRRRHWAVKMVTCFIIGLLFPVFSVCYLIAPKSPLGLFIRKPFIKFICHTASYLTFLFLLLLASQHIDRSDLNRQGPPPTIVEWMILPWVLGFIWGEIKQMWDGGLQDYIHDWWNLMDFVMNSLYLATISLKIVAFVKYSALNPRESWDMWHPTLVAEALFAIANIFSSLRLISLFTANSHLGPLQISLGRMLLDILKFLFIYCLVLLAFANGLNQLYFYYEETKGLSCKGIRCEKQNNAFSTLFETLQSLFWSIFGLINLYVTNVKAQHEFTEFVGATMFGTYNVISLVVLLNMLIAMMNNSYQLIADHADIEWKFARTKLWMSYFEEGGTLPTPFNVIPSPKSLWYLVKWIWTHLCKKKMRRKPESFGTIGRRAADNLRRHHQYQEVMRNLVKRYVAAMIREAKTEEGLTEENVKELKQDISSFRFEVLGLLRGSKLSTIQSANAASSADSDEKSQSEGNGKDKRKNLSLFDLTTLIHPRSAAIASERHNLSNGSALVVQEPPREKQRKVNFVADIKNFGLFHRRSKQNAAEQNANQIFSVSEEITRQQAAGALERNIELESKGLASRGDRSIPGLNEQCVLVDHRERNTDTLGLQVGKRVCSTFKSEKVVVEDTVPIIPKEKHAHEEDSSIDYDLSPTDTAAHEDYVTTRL

Chain of Acyl-homoserine lactone acylase PvdQ (Q9I194 24-193 limits assumed): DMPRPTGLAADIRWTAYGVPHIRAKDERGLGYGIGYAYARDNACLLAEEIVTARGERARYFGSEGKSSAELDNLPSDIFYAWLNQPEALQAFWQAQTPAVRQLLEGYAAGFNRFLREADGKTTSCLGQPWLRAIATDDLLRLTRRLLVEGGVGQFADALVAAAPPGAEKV
Chain of Acyl-homoserine lactone acylase PvdQ (Q9I194 217-762 limits assumed): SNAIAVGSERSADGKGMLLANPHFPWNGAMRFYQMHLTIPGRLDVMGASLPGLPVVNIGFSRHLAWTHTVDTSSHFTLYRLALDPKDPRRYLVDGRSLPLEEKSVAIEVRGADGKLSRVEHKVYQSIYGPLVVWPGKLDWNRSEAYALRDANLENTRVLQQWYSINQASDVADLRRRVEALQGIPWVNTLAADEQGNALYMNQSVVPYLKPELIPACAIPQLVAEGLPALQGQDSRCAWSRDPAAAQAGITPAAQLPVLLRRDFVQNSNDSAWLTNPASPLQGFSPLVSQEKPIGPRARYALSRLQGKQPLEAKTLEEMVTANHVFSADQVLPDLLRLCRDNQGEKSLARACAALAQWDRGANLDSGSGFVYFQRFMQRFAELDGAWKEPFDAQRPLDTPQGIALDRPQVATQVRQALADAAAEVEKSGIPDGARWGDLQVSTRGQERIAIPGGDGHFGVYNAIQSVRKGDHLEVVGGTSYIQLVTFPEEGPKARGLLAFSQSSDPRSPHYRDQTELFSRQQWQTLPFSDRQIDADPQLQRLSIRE
Chain of Lysosomal acid glucosylceramidase (P04062 whole entry): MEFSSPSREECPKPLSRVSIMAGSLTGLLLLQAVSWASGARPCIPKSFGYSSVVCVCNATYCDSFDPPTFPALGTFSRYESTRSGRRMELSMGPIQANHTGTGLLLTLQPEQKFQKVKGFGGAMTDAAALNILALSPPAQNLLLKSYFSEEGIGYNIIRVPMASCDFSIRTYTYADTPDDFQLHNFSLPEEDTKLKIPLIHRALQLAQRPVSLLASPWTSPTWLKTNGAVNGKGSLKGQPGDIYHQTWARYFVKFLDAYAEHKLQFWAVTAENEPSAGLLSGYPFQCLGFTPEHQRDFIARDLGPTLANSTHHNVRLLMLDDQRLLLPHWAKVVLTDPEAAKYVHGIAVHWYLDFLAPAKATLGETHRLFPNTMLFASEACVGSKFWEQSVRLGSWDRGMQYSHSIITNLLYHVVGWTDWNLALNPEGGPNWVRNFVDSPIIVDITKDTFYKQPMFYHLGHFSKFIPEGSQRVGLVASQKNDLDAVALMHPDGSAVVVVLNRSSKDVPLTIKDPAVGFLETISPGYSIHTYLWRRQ
T2 sequence (Q92731 whole entry): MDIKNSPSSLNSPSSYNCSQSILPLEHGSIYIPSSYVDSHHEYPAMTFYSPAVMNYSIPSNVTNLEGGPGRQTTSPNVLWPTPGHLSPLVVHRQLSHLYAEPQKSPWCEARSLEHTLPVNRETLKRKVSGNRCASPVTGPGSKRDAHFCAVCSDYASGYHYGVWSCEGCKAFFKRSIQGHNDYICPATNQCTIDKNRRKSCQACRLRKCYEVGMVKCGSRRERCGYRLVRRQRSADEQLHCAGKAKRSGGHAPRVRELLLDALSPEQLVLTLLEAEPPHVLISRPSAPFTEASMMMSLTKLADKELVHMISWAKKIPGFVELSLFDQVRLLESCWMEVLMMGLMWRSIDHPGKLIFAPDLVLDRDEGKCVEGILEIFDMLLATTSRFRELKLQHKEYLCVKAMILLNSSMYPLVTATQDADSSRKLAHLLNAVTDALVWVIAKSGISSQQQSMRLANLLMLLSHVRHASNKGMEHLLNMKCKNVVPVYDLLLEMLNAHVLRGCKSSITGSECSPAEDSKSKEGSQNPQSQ
Chain of Dual specificity protein phosphatase 3 (P51452 whole entry): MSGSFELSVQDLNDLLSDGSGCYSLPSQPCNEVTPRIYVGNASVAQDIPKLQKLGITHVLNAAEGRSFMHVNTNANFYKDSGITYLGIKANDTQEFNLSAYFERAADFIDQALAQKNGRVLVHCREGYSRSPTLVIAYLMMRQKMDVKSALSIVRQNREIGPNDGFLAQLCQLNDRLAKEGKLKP
Chain of Delta-type opioid receptor (P41143 whole entry): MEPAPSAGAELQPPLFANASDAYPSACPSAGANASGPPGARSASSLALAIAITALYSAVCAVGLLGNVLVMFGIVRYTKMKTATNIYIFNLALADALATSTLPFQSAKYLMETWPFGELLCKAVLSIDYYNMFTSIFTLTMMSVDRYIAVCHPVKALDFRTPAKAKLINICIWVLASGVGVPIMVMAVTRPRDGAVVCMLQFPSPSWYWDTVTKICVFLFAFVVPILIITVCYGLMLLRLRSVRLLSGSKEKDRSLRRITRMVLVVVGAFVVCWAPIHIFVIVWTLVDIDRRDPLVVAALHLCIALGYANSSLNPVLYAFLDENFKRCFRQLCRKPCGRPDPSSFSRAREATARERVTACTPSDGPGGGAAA
Chain of Nonstructural protein 1 (Q194T2 whole entry): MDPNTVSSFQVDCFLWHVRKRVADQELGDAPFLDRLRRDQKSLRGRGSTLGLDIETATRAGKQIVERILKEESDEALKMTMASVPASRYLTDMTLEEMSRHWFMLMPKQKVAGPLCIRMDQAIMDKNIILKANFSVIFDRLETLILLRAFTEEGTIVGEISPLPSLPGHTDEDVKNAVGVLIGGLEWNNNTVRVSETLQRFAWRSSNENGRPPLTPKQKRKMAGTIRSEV
Chain of 5-hydroxytryptamine receptor 5A (P47898 whole entry): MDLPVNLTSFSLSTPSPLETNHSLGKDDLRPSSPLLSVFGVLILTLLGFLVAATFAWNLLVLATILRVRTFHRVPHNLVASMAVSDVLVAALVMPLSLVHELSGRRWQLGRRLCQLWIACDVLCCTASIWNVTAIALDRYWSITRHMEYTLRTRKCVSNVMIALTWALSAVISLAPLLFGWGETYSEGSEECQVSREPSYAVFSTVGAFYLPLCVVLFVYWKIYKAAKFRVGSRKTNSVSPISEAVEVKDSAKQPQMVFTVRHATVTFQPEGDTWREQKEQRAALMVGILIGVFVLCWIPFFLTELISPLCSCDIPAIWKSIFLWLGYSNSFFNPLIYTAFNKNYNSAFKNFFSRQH
Chain of Alkaline phosphatase, placental type (P05187 whole entry): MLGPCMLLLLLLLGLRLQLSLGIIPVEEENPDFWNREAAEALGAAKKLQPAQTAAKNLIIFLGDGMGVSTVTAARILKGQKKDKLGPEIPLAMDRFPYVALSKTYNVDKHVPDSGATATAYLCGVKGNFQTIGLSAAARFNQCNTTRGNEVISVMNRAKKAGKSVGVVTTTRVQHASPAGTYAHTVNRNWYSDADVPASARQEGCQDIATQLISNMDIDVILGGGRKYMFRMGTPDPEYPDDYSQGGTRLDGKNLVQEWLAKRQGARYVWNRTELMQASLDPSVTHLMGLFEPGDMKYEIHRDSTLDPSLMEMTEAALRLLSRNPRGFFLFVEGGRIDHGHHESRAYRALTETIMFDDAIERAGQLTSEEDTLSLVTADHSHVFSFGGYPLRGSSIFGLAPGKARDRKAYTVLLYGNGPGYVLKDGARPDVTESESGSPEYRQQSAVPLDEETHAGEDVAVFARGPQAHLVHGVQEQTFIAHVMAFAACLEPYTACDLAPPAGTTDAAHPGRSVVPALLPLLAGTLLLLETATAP
Chain of G-protein coupled receptor 35 (Q9HC97 whole entry): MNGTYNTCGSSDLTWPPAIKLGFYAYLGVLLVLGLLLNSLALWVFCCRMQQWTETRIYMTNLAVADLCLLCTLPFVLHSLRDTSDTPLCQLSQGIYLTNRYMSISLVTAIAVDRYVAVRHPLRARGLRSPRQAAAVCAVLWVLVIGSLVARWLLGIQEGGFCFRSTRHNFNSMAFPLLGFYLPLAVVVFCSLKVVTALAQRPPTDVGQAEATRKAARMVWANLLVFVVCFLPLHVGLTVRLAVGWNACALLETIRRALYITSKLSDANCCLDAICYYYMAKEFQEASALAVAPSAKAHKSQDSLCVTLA
Chain of Bcl-2-like protein 10 (Q9HD36 whole entry): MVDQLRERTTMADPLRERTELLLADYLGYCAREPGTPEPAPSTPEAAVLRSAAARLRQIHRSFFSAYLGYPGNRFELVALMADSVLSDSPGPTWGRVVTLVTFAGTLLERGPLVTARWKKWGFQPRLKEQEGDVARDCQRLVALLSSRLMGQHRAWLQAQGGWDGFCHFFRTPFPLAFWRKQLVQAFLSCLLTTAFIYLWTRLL
Chain of Mu-type opioid receptor (P35372 whole entry): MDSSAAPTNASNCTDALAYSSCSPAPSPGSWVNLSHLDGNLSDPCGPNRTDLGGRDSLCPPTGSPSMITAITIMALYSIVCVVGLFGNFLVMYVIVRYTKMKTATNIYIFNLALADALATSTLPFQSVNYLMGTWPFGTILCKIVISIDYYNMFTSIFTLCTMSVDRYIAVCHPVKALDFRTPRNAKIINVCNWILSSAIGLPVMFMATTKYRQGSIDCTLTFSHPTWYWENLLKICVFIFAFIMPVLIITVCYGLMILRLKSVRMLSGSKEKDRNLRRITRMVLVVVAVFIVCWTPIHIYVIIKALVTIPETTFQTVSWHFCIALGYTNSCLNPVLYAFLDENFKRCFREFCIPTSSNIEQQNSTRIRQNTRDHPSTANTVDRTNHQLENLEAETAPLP
Chain of FAD-linked sulfhydryl oxidase ALR (P55789 whole entry): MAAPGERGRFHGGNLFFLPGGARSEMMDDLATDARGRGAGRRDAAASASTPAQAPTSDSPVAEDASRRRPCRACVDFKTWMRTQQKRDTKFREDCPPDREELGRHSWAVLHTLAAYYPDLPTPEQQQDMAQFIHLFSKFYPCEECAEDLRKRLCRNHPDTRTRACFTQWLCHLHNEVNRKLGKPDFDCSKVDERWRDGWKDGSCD

## CN(C)c1ccc(/C=C2\NC(=S)N(Cc3ccccc3)C2=O)cc1
[1]
  IC50: 651 nM (active)

## COc1ccc(Cl)cc1NC(=O)c1ocnc1C
[2]
  IC50: 24.9 µM (active)
[3]
  IC50: 8.77 µM (active)
[4]
  IC50: > 109 µM (not active)

## O=C(NCc1ccccc1)NC1(C(=O)N2CCN(c3ccccc3)CC2)CCCCC1
[5]
  EC50: > 100 µM (not active)

## Cc1ccc2c(C)nc(Nc3nc(O)cc(CSc4nc5ccccc5[nH]4)n3)nc2c1
[5]
  EC50: 82.2 µM (not active)
[6]
  IC50: > 79 µM (inactive)
[7]
  AC50: 61.7 µM (active)
[8]
  AC50: 100 nM (inconclusive)

## Cc1ccc(NC(S)=NNC(=O)c2nn(C)c(C)c2Cl)cc1
[9]
  EC50: 10.9 µM (active)
[10]
  IC50: > 100 µM (inactive)
[11]
  IC50: > 122 µM (inactive)
[12]
  IC50: > 100 µM (inactive)
[13]
  EC50: 12 µM (active)
[14]
  EC50: 6.19 µM (active)
[15]
  IC50: > 100 µM (inactive)

## O=C1NC(=O)C2(COC3(CCCC3)OC2)S1
[16]
  CC50: > 99 µM (not active)

## COc1ccc(CNCc2cccc(Cl)c2)cc1
[17]
  AC50: 6.75 µM (active)

## CN(C)c1ccc(-c2nc3ccccc3n2C)cc1
[18]
  AC50: > 52 µM (inactive)
[19]
  AC50: 38.2 µM (active)
[20]
  EC50: 7.88 µM (active)
[21]
  AC50: 2.11 µM (active)
[22]
  AC50: 6.13 µM (active)
[23]
  AC50: 32.2 µM (active)
[24]
  EC50: > 50 µM (not active)
[25]
  EC50: 12.7 µM (active)
[26]
  AC50: 4.7 µM (active)
[27]
  AC50: 4.64 µM (active)

## O=C1CC(=O)N(c2ccc3c(c2)OCO3)C(=O)N1
[24]
  EC50: > 50 µM (not active)

## COc1ccc(OC)c(C(=S)NCc2ccc(F)c(C(F)(F)F)c2)c1
[10]
  IC50: 15.5 µM (active)
[15]
  IC50: 60.8 µM (active)

## N#CCN(N=Nc1ccccc1)c1ccccc1
[17]
  AC50: 9.41 µM (active)

## CC(=O)Nc1ccc(S(=O)(=O)NC2=C(N3CCN(Cc4ccccc4)CC3)C(=O)c3ccccc3C2=O)cc1
[28]
  IC50: 21.4 µM (active)
[29]
  EC50: > 92.4 µM (inactive)
[30]
  EC50: > 92.4 µM (inactive)
[31]
  IC50: 77.9 µM (inactive)
[32]
  EC50: > 92.4 µM (inactive)
[33]
  EC50: 1.06 µM (active)
